Source: US20100003246A1, “Novel heterocyclic compounds and uses therof” (priority 2008, published 2010)

Key:
[1] = system: A375 cells; experiment: Cell Titer-Glo cell viability assay, A375; format: cell-based; conditions: Homo sapiens, A-375, 72 h; Melanoma cell line A375; 3 days compound incubation; 1000 cells/well
Description: (§1) The Cell Titer-Glo® assay (Promega) was used to measure cell viability. Cells were plated into 96-well black walled tissue culture plates in complete growth media. The plates were then incubated under standard growth conditions of 37° C. and 5% CO2 until the cells had attached to the plates (3-6 hours), then compounds were added to the cells. Compounds were serially diluted in DMSO using 3-fold dilutions and then diluted in complete media before being added to the cells (final DMSO concentration on cells was 0.1-0.2%).
(§2) After compound incubation, the cell plates were equilibrated to room temperature, culture media was removed, and 200 uL of Cell Titer-Glo® reagent mix was added to each well (1:1 mixture of Cell Titer-Glo® reagent and complete growth media, equilibrated to room temperature). The plates were shaken for 5-10 minutes, then sealed and luminescence was measured (using Trilux plate reader, Perkin Elmer).
(§3) Analysis of data was done by subtracting the background luminescence value from each data point, then determining the percent inhibition of total growth (as determined by the values for DMSO-treated wells).
(§4) To determine the EC50 for each compound, the data were fit using the Levenburg Marquardt algorithm, represented in the XLfit software as y=A+((B−A)/(1+((C/x)̂D))), the four parameter dose response model 205, where A is the minimum Y value, B is the maximum Y value, C is the Log IC50 and D is the slope.

[2] = target: T1, b-Raf(V600E) (Homo sapiens, UniProt P15056, V600E); experiment: Raf/Mek Amplified Luminescence Proximity Homogeneous Assay (Alpha Screen), b-Raf(V600E); format: biochemical; conditions: mutant b-Raf(V600E), read-out: mut-b-RAF (IC50 in uM)
T1 construct: made in house
T1 sequence (P15056 whole entry V600E): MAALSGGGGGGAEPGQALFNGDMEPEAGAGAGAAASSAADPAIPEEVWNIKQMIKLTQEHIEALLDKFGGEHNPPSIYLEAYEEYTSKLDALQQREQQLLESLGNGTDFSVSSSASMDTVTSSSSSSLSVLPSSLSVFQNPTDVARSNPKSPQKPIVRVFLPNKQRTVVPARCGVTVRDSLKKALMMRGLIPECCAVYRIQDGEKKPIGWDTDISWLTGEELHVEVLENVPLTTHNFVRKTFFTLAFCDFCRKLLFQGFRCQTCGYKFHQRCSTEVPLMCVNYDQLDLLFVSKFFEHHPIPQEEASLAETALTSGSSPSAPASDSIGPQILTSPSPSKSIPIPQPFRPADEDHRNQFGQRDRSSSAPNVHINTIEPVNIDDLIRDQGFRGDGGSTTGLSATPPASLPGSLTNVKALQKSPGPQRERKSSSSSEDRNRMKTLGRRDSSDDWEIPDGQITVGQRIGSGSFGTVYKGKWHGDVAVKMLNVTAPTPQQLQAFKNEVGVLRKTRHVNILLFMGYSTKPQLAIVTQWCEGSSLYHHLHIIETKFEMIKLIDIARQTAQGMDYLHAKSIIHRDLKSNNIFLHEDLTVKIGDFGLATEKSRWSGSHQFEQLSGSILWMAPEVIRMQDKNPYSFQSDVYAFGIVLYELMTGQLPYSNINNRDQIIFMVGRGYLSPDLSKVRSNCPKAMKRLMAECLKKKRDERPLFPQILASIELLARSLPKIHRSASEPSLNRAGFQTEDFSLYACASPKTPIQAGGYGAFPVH
How it was run: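 IC50 derived by non-linear regression from AlphaScreen luminescence of phospho-MEK (anti-p-MEK antibody). Reaction: ~4 pM b-Raf(V600E), ~10 nM kinase-dead biotinylated Mek, 60 min compound pre-incubation, then 3 h with ATP at room temperature in pH 7.5 Tris/MgCl2/DTT buffer, quenched with EDTA.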

[3] = system: G361 cells; experiment: Cell Titer-Glo cell viability assay, G361; format: cell-based; conditions: Homo sapiens, G-361, 96 h; Melanoma cell line G361; 4 days compound incubation; 1000 cells/well
Description: as §1, §2, §3, §4

[4] = system: Malme3M cells; experiment: Cell Titer-Glo cell viability assay, Malme3M; format: cell-based; conditions: Homo sapiens, Malme-3M, 120 h; Melanoma cell line Malme3M; 5 days compound incubation; 1000 cells/well
Description: as §1, §2, §3, §4

[5] = system: Capan1 cells; experiment: Cell Titer-Glo cell viability assay, Capan1; format: cell-based; conditions: Homo sapiens, CAPAN-1, 120 h; Pancreatic cell line Capan1; 5 days compound incubation; 2000 cells/well
Description: as §1, §2, §3, §4

[6] = system: SU86.86 cells; experiment: Cell Titer-Glo cell viability assay, SU86.86; format: cell-based; conditions: Homo sapiens, SU.86.86, 120 h; Pancreatic cell line SU86.86; 5 days compound incubation; 1000 cells/well
Description: as §1, §2, §3, §4

COc1cc(-c2nc(-c3ccc(F)cc3)[nH]c2-c2ccncc2)cnc1N [Compound 66, 5-(2-(4-fluorophenyl)-5-(pyridin-4-yl)-1H-imidazol-4-yl)-3-methoxypyridin-2-amine]
EC50 [1]: 623 nM
IC50 [2]: 0.6 nM
EC50 [3]: 1020 nM
EC50 [4]: 816 nM

COCC(=O)NCCNc1nccc(-c2nc(-c3ccc(F)cc3)[nH]c2-c2cnc(N)c(OC)c2)n1 [Compound 81, N-(2-(4-(5-(6-amino-5-methoxypyridin-3-yl)-2-(4-fluorophenyl)-1H-imidazol-4-yl)pyrimidin-2-ylamino)ethyl)-2-methoxyacetamide]
EC50 [1]: 547 nM
IC50 [2]: 0.1 nM
EC50 [3]: 305 nM
EC50 [4]: 194 nM
EC50 [5]: 319 nM

COCC(=O)NCCNc1nccc(-c2[nH]c(-c3ccc(C(F)(F)F)cc3)nc2-c2cnc(N)c(OC)c2)n1 [Compound 85, N-(2-(4-(4-(6-amino-5-methoxypyridin-3-yl)-2-(4-(trifluoromethyl)phenyl)-1H-imidazol-5-yl)pyrimidin-2-ylamino)ethyl)-2-methoxyacetamide]
IC50 [2]: 0.2 nM
EC50 [6]: 111 nM
EC50 [5]: 163 nM

COc1cc(-c2[nH]c(-c3ccc(F)cc3F)nc2-c2ccncc2)cnc1N [Compound 106, 5-(2-(2,4-difluorophenyl)-4-(pyridin-4-yl)-1H-imidazol-5-yl)-3-methoxypyridin-2-amine]
IC50 [2]: 1 nM
EC50 [6]: 118 nM
EC50 [5]: 674 nM

COc1nc(-c2nc(C(C)(C)C)[nH]c2-c2ccnc(NC[C@H](C)NC(=O)OCC(C)C)n2)c(C)nc1N [Compound 258, (S)-isobutyl 1-(4-(4-(5-amino-6-methoxy-3-methylpyrazin-2-yl)-2-tert-butyl-1H-imidazol-5-yl)pyrimidin-2-ylamino)propan-2-ylcarbamate]
IC50 [2]: 1.1 nM

COc1nc(-c2nc(C(C)(C)C)[nH]c2-c2ccnc(NC[C@H](C)NC(=O)OCC(C)(C)C)n2)c(C)nc1N [Compound 259, (S)-neopentyl 1-(4-(4-(5-amino-6-methoxy-3-methylpyrazin-2-yl)-2-tert-butyl-1H-imidazol-5-yl)pyrimidin-2-ylamino)propan-2-ylcarbamate]
IC50 [2]: 1.5 nM

COC(=O)N[C@@H](C)CNc1nccc(-c2[nH]c(C(C)(C)C)nc2-c2nc(OC)c(N)nc2C)n1 [Compound 260, (S)-methyl 1-(4-(4-(5-amino-6-methoxy-3-methylpyrazin-2-yl)-2-tert-butyl-1H-imidazol-5-yl)pyrimidin-2-ylamino)propan-2-ylcarbamate]
IC50 [2]: 1 nM

[2H]C([2H])([2H])Oc1nc(-c2nc(C(C)(C)C)[nH]c2-c2ccnc(NC[C@H](C)NC(=O)OC)n2)cnc1N [Compound 261, (S)-methyl 1-(4-(4-(5-amino-6-(D3-methoxy)pyrazin-2-yl)-2-tert-butyl-1H-imidazol-5-yl)pyrimidin-2-ylamino)propan-2-ylcarbamate]
IC50 [2]: 0.1 nM

COC(=O)N[C@@H](C)CNc1nccc(-c2nc(C(C)(C)C)[nH]c2-c2cnc3[nH]ccc3c2)n1 [Compound 262, (S)-methyl 1-(4-(2-tert-butyl-5-(1H-pyrrolo[2,3-b]pyridin-5-yl)-1H-imidazol-4-yl)pyrimidin-2-ylamino)propan-2-ylcarbamate]
IC50 [2]: 0.2 nM

COC(=O)N[C@@H](C)CNc1nccc(-c2nc(C(C)(C)C)[nH]c2-c2cnc3[nH]cc(C(F)(F)F)c3c2)n1 [Compound 263, (S)-methyl 1-(4-(2-tert-butyl-5-(3-(trifluoromethyl)-1H-pyrrolo[2,3-b]pyridin-5-yl)-1H-imidazol-4-yl)pyrimidin-2-ylamino)propan-2-ylcarbamate]
IC50 [2]: 65 nM

CCS(=O)(=O)N1CCN(c2nc(-c3ccncc3)c(-c3cnc(N)c(OC)c3)[nH]2)CC1 [Compound 264, 5-(2-(4-(ethylsulfonyl)piperazin-1-yl)-4-(pyridin-4-yl)-1H-imidazol-5-yl)-3-methoxypyridin-2-amine]
IC50 [2]: 40 nM

COC(=O)N[C@@H](C)CNc1nccc(-c2[nH]c(C(C)(C)C)nc2-c2cnc(N)c(OC(F)F)c2)n1 [Compound 265, (S)-methyl 1-(4-(4-(6-amino-5-(difluoromethoxy)pyridin-3-yl)-2-tert-butyl-1H-imidazol-5-yl)pyrimidin-2-ylamino)propan-2-ylcarbamate]
IC50 [2]: 0.01 nM

COc1cc(-c2nc(-c3ccccc3)[nH]c2-c2ccncc2)cnc1N [Example 1, 3-Methoxy-5-(2-phenyl-5-(pyridine-4-yl)-1H-imidazol-4-yl)pyridine-2-amine]
IC50 [2]: 1 nM

COc1cc(-c2[nH]c(-c3ccc(C(F)(F)F)cc3)nc2-c2ccncc2)cnc1N [Example 2, 3-methoxy-5-(5-(pyridine-4-yl)-2-(4-(trifluoromethyl)phenyl)-1H-imidazol-4-yl)pyridin-2-amine]
IC50 [2]: 0.4 nM

COc1cc(-c2nc(-c3ccccc3)[nH]c2-c2ccnc(NCCO)n2)cnc1N [Example 3, 2-(4-(4-(6-amino-5-methoxypyridin-3-yl)-2-phenyl-1H-imidazol-5-yl)pyrimidin-2-ylamino)ethanol]
IC50 [2]: 1.3 nM

COCC(=O)N[C@@H](C)CNc1nccc(-c2[nH]c(-c3ccc(C(F)(F)F)cc3)nc2-c2cnc(N)c(OC)n2)n1 [Example 4, (S)—N-(1-(4-(4-(5-amino-6-methoxypyrazin-2-yl)-2-(4-(trifluoromethyl)phenyl)-1H-imidazol-5-yl)pyrimidin-2-ylamino)propan-2-yl)-2-methoxyacetamide]
IC50 [2]: 0.1 nM

COCC(=O)N[C@@H](C)CNc1nccc(-c2[nH]c(-c3ccc(F)cc3)nc2-c2cnc(N)c(OC)n2)n1 [Example 5, (S)—N-(1-(4-(4-(5-amino-6-methoxylpyrazin-2-yl)-2-(4-fluorophenyl)-1H-imidazol-5-yl)pyrimidin-2-ylamino)propan-2-yl)-2-methoxyacetamide]
IC50 [2]: 0.2 nM

COc1cc(-c2nc(C(C)(C)C)[nH]c2-c2ccnc(NC[C@H](C)O)n2)cnc1N [Example 6]
IC50 [2]: 0.3 nM

COCC(=O)N[C@@H](C)CNc1nccc(-c2[nH]c(C(C)(C)C)nc2-c2cnc(N)c(OC)n2)n1 [Example 7, (S)—N-(1-(4-(4-(5-amino-6-methoxypyrazin-2-yl)-2-tert-butyl-1H-imidazol-5-yl)pyrimidin-2-ylamino)propan-2-yl)-2-methoxyacetamide]
IC50 [2]: 0.3 nM

COC(=O)N[C@@H](C)CNc1nccc(-c2[nH]c(C(C)(C)C)nc2-c2cnc(N)c(OC)n2)n1 [Example 8, (S)-methyl 1-(4-(4-(5-amino-6-methoxypyrazin-2-yl)-2-tert-butyl-1H-imidazol-5-yl)pyrimidin-2-ylamino)propan-2-ylcarbamate]
IC50 [2]: 0.1 nM

COc1cc(Nc2nccc(-c3[nH]c(C(C)(C)C)nc3-c3cnc(N)c(OC)n3)n2)ccn1 [Example 9, 4-(4-(5-amino-6-methoxypyrazin-2-yl)-2-tert-butyl-1H-imidazol-5-yl)-N-(2-methoxypyridin-4-yl)pyrimidin-2-amine]
IC50 [2]: 0.1 nM

COc1cc(-c2[nH]c(-c3ccc(F)cc3)nc2C2CCOCC2)cnc1N [Example 10, 5-(2-(4-fluorophenyl)-5-(tetrahydro-2H-pyran-4-yl)-1H-imidazol-4-yl)-3-methoxypyridin-2-amine]
IC50 [2]: 405 nM

COc1cc(-c2[nH]c(-c3ccc(F)cc3)nc2-c2cncs2)cnc1N [Example 11, 5-(2-(4-fluorophenyl)-5-(thiazol-5-yl)-1H-imidazol-4-yl)-3-methoxypyridin-2-amine]
IC50 [2]: 36.5 nM

Fc1ccc(-c2nc(-c3ccncc3)c(-c3cnc4[nH]cc(Cl)c4c3)[nH]2)cc1 [Example 12, 3-chloro-5-(2-(4-fluorophenyl)-4-(pyridine-4-yl)-1H-imidazol-5-yl)-1H-pyrrolo[2,3-b]pyridine]
IC50 [2]: 2 nM

COc1cc(-c2nc(-c3ccc(F)cc3)oc2-c2ccncc2)cnc1N [Example 13, 5-(2-(4-fluorophenyl)-5-(pyridin-4-yl)oxazol-4-yl)-3-methoxypyridin-2-amine]
IC50 [2]: 0.5 nM

COCC(=O)N[C@@H](C)CNc1nccc(-c2oc(-c3ccc(C(F)(F)F)cc3)nc2-c2cnc(N)c(OC)c2)n1 [Example 14]
IC50 [2]: 3 nM

COc1cc(-c2sc(-c3ccccc3)nc2-c2ccncc2)cnc1N [Example 15, 3-methoxy-5-(2-phenyl-4-(pyridine-4-yl)thiazol-5-yl)pyridine-2-amine]
IC50 [2]: 1.9 nM

COc1cc(-c2nc(-c3ccc(F)cc3)sc2-c2ccncc2)cnc1N [Example 16, 5-(2-(4-fluorophenyl)-5-(pyridin-4-yl)thiazol-4-yl)-3-methoxypyridin-2-amine]
IC50 [2]: 14.3 nM
